These results are taken from ChEMBL document CHEMBL1136713, “Structure-activity relationships of acetylcholinesterase noncovalent inhibitors based on a polyamine backbone. 2. Role of the substituents on the phenyl ring and nitrogen atoms of caproctamine” (J Med Chem, 2003).

For series [1], the target named is T1, Acetylcholinesterase (Homo sapiens, UniProt P22303).
Description: Inhibitory concentration against acetylcholinesterase from human erythrocytes
The next series concerns the target Cholinesterase (Homo sapiens, UniProt P06276).
Series [2] is described as follows: Apparent dissociation constant of compound was evaluated. The class given is ADME.
For series [3], the target named is T2, Muscarinic acetylcholine receptor M2 (Homo sapiens) (UniProt P08172).
T2 sequence (whole entry): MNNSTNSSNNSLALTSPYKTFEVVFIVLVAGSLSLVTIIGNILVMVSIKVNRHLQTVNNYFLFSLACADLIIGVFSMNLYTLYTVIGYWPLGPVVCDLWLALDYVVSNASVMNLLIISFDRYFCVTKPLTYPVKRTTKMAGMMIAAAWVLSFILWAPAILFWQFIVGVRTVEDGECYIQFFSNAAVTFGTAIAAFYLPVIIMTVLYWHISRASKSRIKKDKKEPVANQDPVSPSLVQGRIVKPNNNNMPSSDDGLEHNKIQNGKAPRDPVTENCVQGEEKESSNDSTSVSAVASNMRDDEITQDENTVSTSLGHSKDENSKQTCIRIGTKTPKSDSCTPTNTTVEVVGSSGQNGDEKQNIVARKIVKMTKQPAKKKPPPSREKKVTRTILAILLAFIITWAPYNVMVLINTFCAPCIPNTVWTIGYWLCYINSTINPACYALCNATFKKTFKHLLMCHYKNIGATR
As to the kind of experiment: Antagonistic potency of compound towards Muscarinic acetylcholine receptor M2 in guinea pig left atrium. The series is classed as functional, tissue-based. The following applies: Cavia porcellus; Cardiac atrium; target entry is the homologue from another species.

Series [4] concerns the target T1, Acetylcholinesterase. The source holds these as a separate data set.
Description: Inhibitory activity of compound against acetylcholinesterase from human erythrocytes
The target of series [5] is T1, Acetylcholinesterase. This is another data set of the same source.
Description: Inhibitory concentration of compound against acetylcholinesterase from human erythrocytes at pH=7.0
Series [6] deals with T1, Acetylcholinesterase. This is another data set of the same source.
Description: Inhibitory concentration of compound against acetylcholinesterase from human erythrocytes at pH=7.5
In series [7] the target is T1, Acetylcholinesterase. This is another data set of the same source.
Description: Inhibitory concentration of compound against acetylcholinesterase from human erythrocytes at pH=8.0

Chain of Cholinesterase (P06276 whole entry): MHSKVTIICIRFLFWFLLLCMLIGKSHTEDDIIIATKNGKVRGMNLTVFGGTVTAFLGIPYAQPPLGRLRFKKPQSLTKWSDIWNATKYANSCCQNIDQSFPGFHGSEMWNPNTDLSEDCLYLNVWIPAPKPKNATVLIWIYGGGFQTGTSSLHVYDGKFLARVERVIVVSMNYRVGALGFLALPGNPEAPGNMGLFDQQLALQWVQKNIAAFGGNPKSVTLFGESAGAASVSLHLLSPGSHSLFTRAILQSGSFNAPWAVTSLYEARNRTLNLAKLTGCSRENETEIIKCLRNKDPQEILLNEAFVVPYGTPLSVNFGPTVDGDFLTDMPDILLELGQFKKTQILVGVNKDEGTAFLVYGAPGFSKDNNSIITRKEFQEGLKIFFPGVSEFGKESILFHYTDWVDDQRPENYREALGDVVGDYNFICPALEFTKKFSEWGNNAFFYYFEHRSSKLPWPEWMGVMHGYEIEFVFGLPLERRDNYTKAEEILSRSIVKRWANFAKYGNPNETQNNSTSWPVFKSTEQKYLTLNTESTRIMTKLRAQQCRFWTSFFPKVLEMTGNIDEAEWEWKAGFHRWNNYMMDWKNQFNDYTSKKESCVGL
T1 sequence (P22303 whole entry): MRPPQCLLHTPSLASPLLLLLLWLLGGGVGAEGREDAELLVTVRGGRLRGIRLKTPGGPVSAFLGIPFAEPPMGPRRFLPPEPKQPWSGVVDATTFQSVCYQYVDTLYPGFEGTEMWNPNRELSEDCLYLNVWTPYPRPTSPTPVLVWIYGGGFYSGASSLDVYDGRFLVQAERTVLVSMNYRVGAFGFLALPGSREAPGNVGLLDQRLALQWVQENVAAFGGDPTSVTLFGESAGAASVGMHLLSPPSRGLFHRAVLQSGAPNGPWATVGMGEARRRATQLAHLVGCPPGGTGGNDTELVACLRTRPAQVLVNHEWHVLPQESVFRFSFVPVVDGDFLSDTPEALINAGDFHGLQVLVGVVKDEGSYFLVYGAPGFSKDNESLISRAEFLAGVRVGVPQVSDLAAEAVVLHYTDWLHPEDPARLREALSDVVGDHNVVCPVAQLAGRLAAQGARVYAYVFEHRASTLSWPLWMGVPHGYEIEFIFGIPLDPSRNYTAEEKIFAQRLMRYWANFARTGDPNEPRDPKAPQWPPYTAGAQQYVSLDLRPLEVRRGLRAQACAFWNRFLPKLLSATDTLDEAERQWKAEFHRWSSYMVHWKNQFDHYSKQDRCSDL
Description for Cavia porcellus: Ability to reverse the D-tubocurarine-induced neuromuscular blockade in guinea pig left atrium

As to `CC[N+](C)(CCCCCC(=O)N(C)CCCCCCCCN(C)C(=O)CCCCC[N+](C)(CC)Cc1ccccc1C)Cc1ccccc1C` (configuration not stated), the IC50 on Acetylcholinesterase [1] was 16.6 nM; against Cholinesterase, 6460 nM.
The matching figures for `COc1cccc(CN(C)CCCCCC(=O)N(C)CCCCCCCCN(C)C(=O)CCCCCN(C)Cc2cccc(OC)c2)c1`: 676 nM and 8320 nM.
For `CCCOc1ccccc1C[N+](C)(CC)CCCCCC(=O)N(C)CCCCCCCCN(C)C(=O)CCCCC[N+](C)(CC)Cc1ccccc1OCCC` (configuration not stated) the same measures were 17.4 nM and 83.2 nM.
For `COc1ccccc1CN(CCCCCC(=O)N(C)CCCCCCCCN(C)C(=O)CCCCCN(Cc1ccccc1OC)C(C)C)C(C)C` the same measures were 72.4 nM and 871 nM.
Consider `CCN(CCCCCC(=O)N(C)CCCCCCCCN(C)C(=O)CCCCCN(CC)Cc1ccccc1)Cc1ccccc1`, for which the pKa in [2] turned out to be 7.42. For the same compound, the IC50 against Acetylcholinesterase [1] was 49 nM; at Cholinesterase it was 1070 nM. In the series filed under Cavia porcellus, the pAI50 is on record as 6.32.
In the case of `CC[N+](C)(CCCCCCOCCCCCCCCOCCCCCC[N+](C)(CC)Cc1ccccc1OC)Cc1ccccc1OC` (configuration not stated), the IC50 at Acetylcholinesterase [1] is 77.6 nM; against Cholinesterase, 759 nM.
For `CCN(CCCCCC(=O)N(CCCCCCCCN(C(=O)CCCCCN(CC)Cc1ccccc1OC)C(C)C)C(C)C)Cc1ccccc1OC` the same measures were 18.2 nM and 2140 nM.
For the compound `CCN(CCCCCC(=O)N(C)CCCCCCCCN(C)C(=O)CCCCCN(CC)Cc1ccccc1Cl)Cc1ccccc1Cl`, the pKa in series [2] was 6.92. Besides, the IC50 is 112 nM against Acetylcholinesterase [1] and 4070 nM at Cholinesterase. This compound also gave a pKb in [3] of 5.61. This compound gave a pAI50 in the series listed under Cavia porcellus of 7.19.
Turning to `COc1ccccc1CN(C)CCCCCC(=O)N(C)CCCCCCCCN(C)C(=O)CCCCCN(C)Cc1ccccc1OC` [CAPROCTAMINE], the pKb in series [3] was 6.39. The compound also returned a Ki on Acetylcholinesterase [4] of 104 nM. In the series filed under Cavia porcellus, this compound yielded a pAI50 of 5.79.
As to `CC[N+](C)(CCCCCC(=O)N(C)CCCCCCCCN(C)C(=O)CCCCC[N+](C)(CC)Cc1ccccc1C(F)(F)F)Cc1ccccc1C(F)(F)F` (configuration not stated), the results for the IC50 against Acetylcholinesterase [1] and at Cholinesterase were 11.7 nM and 7590 nM, respectively.
As for `CCCOc1ccccc1CN(CC)CCCCCC(=O)N(C)CCCCCCCCN(C)C(=O)CCCCCN(CC)Cc1ccccc1OCCC`, in [2], the pKa was found to be 7.75. Moreover, the IC50 is 33.9 nM at Acetylcholinesterase [1] and 166 nM against Cholinesterase. The compound also returned a pAI50 in the series listed under Cavia porcellus of 6.19.
With `COc1ccc(CN(C)CCCCCC(=O)N(C)CCCCCCCCN(C)C(=O)CCCCCN(C)Cc2ccc(OC)cc2)cc1`, the IC50 is 5750 nM against Acetylcholinesterase [1] and 5500 nM on Cholinesterase.
Take `CCN(CCCCCC(=O)N(C)CCCCCCCCN(C)C(=O)CCCCCN(CC)Cc1ccccc1C(F)(F)F)Cc1ccccc1C(F)(F)F`: in series [2], the pKa stood at 6.15. Further, the IC50 at Acetylcholinesterase [1] is 4570 nM; at Cholinesterase, 166000 nM. The same compound had a pKb in series [3] below 5. Besides, the pAI50 in the series listed under Cavia porcellus turned out to be 6.84.
For the compound `CCN(CCCCCC(=O)N(C)CCCCCCCCN(C)C(=O)CCCCCN(CC)Cc1ccccc1C)Cc1ccccc1C`, the pKa in [2] worked out at 7.46. Further, the IC50 on Acetylcholinesterase [1] is 56.2 nM; against Cholinesterase it was 7410 nM. This compound had a pAI50 in the series filed under Cavia porcellus of 6.35.
On to `CC[N+](C)(CCCCCC(=O)N(CCCCCCCCN(C(=O)CCCCC[N+](C)(CC)Cc1ccccc1OC)C(C)C)C(C)C)Cc1ccccc1OC` (configuration not stated), for which the figures for the IC50 against Acetylcholinesterase [1] and against Cholinesterase were 8.13 nM and 1660 nM, respectively.
The matching figures for `CC[N+](C)(CCCCCC(=O)N(C)CCCCCCCCN(C)C(=O)CCCCC[N+](C)(CC)Cc1ccccc1)Cc1ccccc1` (configuration not stated): 37.2 nM and 2510 nM.
The matching figures for `CCN(CCCCCCOCCCCCCCCOCCCCCCN(CC)Cc1ccccc1OC)Cc1ccccc1OC`: 204 nM and 2630 nM.
The matching figures for `CC[N+](C)(CCCCCC(=O)N(C)CCCCCCCCN(C)C(=O)CCCCC[N+](C)(CC)Cc1ccccc1Cl)Cc1ccccc1Cl` (configuration not stated): 19.5 nM and 2570 nM.
In the case of `CCN(CCCCCC(=O)N(C)CCCCCCCCN(C)C(=O)CCCCCN(CC)Cc1ccccc1[N+](=O)[O-])Cc1ccccc1[N+](=O)[O-]`, the pKa in [2] came to 6.26. In addition, the IC50 against Acetylcholinesterase [1] is 794 nM; on Cholinesterase it was 55000 nM; against Acetylcholinesterase [5] it was 32.4 nM; against Acetylcholinesterase [6], 79.4 nM; at Acetylcholinesterase [7], 794 nM. Moreover, the pAI50 in the series listed under Cavia porcellus was found to be 5.93.
Regarding `CC[N+](C)(CCCCCC(=O)N(C)CCCCCCCCN(C)C(=O)CCCCC[N+](C)(CC)Cc1ccccc1OC)Cc1ccccc1OC` (configuration not stated), the IC50 against Acetylcholinesterase [1] was 12 nM; at Cholinesterase, 1410 nM; on Acetylcholinesterase [5], 11 nM; at Acetylcholinesterase [6], 11 nM; on Acetylcholinesterase [7] it was 12 nM. In addition, the pAI50 in the series listed under Cavia porcellus worked out at 7.21.
In the case of `CC[N+](C)(CCCCCC(=O)N(C)CCCCCCCCN(C)C(=O)CCCCC[N+](C)(CC)Cc1ccccc1[N+](=O)[O-])Cc1ccccc1[N+](=O)[O-]` (configuration not stated), the IC50 at Acetylcholinesterase [1] was 12.3 nM; against Cholinesterase, 2400 nM; at Acetylcholinesterase [5], 12.6 nM; against Acetylcholinesterase [6], 12.9 nM; on Acetylcholinesterase [7] it was 12.3 nM.
In the case of `CNC(=O)Oc1ccc2c(c1)[C@]1(C)CCN(C)[C@@H]1N2C` [PHYSOSTIGMINE], the pAI50 in the series listed under Cavia porcellus is given as 6.5.
Turning to `CCN(CCCCCC(=O)N(C)CCCCCCCCN(C)C(=O)CCCCCN(CC)Cc1ccccc1OC)Cc1ccccc1OC`, the pKa in series [2] was determined as 7.8. Further, the IC50 at Acetylcholinesterase [1] is 18.6 nM; against Cholinesterase it was 2240 nM; on Acetylcholinesterase [5], 16.2 nM; against Acetylcholinesterase [6], 17.4 nM; against Acetylcholinesterase [7], 18.6 nM. In series [3], this compound displayed a pKb of 5.65. Also, the affinity at Acetylcholinesterase [4] corresponds to a Ki of 12.2 nM. Besides, the pAI50 in the series listed under Cavia porcellus stood at 6.45.
